Data as given in US20010034373A1, “Low dose modafinil for enhancement of cognitive function” (priority 2000, published 2001).
“Also recorded” adds a separate entry of the source.

Columns and labels:
[1] = test system: aged male Wistar rats; details: rat, in vivo
[2] = test system: aged rats; experiment: performance of a stabilized delayed alternation task at three retention delays in aged rats; assay type: in vivo, rat; set-up: dose or concentration left out as unconfirmed; details: 15, 30 or 60 modafinil
Procedure: In another study, aged rats were tested for performance of a stabilized delayed alternation task at three retention delays. After stabilized performance in training sessions the rats were entered into a drug testing study with […] of modafinil. A trial started with the presentation of a single lever (left or right). […] After the expiration of the delay, the 2 levers were inserted into the chamber and the animal received a food pellet only if it pressed the lever not previously presented (delayed alternation). Incorrect responses (responses on the same lever) were not reinforced. The 3 delays were randomly presented and equally distributed throughout the session. Correct or incorrect responses were followed by retraction of the two levers. […] The test results indicated the response accuracy of the animal after each retention delay, the simple reaction time in the one lever presentation, and the choice reaction time in the two lever presentation. […] Therefore, modafinil had no effect on improving short term memory at these doses.

[3] = test system: adult humans; experiment: wakefulness promoting dose extrapolated to adult humans; assay type: in vivo, human; details: extrapolation in adult humans
Procedure: The dosage levels in rats in the studies described herein are reported in mg/kg administered by intraperitoneal injection (i.p.). As described in previous publications, the wakefulness promoting dose of modafinil in rats is highly significant at doses of 100 to 300 mg/kg i.p. (Edgar and Seidel, The Journal of Pharmacology and Experimental Therapeutics, vol. 283, pp 757-769, 1997). The extrapolation in adult humans is a wakefulness promoting dose of 200 mg/day. A dose of 200 mg to an adult human would result in a serum level of about 6.4 μg/ml. […] An effective dose, therefore, is a dose given as a single unit per day in a sustained release formula or given periodically would be that dose that maintains a serum level of from about 0.05 to about 2 μg/ml.

[4] = dose of 200 mg to an adult human; cited from earlier work

NC(=O)C[S+]([O-])C(c1ccccc1)c1ccccc1 (centres unmarked) [Modafinil, 2-(benzhydrylsulfinyl) acetamide]
choice reaction times [1]: significantly decreased
general ability of animals to perform the task [1]: failed to improve
number of correct responses [1]: No effects
number of correct responses (response accuracy) [1]: significantly increased
number of response omissions [1]: significantly increased
simple reaction times [1]: No clear effects; also recorded: tended to increase
cognitive function in aged rats ([1]; 60 mg/kg): restored cognitive function in the aged rats to the level of the young control rats
effect on improving short term memory [2]: no effect
number of correct responses at any retention delay ([2]; retention delays 5, 10 or 20 seconds): did not significantly affect
wakefulness promoting dose [3]: 200 mg/day
serum level [4]: about 6.4 μg/ml
